ChEMBL document CHEMBL1126921, “Heterocyclic lactam derivatives as dual angiotensin converting enzyme and neutral endopeptidase 24.11 inhibitors” (J Med Chem, 1993)

How the values were obtained:
[1] = molecular target: T1, Angiotensin-converting enzyme (Oryctolagus cuniculus, UniProt P12822); experiment: Tested in vitro for the inhibition of angiotensin converting enzyme from rabbit lung
T1 sequence (P12822 whole entry): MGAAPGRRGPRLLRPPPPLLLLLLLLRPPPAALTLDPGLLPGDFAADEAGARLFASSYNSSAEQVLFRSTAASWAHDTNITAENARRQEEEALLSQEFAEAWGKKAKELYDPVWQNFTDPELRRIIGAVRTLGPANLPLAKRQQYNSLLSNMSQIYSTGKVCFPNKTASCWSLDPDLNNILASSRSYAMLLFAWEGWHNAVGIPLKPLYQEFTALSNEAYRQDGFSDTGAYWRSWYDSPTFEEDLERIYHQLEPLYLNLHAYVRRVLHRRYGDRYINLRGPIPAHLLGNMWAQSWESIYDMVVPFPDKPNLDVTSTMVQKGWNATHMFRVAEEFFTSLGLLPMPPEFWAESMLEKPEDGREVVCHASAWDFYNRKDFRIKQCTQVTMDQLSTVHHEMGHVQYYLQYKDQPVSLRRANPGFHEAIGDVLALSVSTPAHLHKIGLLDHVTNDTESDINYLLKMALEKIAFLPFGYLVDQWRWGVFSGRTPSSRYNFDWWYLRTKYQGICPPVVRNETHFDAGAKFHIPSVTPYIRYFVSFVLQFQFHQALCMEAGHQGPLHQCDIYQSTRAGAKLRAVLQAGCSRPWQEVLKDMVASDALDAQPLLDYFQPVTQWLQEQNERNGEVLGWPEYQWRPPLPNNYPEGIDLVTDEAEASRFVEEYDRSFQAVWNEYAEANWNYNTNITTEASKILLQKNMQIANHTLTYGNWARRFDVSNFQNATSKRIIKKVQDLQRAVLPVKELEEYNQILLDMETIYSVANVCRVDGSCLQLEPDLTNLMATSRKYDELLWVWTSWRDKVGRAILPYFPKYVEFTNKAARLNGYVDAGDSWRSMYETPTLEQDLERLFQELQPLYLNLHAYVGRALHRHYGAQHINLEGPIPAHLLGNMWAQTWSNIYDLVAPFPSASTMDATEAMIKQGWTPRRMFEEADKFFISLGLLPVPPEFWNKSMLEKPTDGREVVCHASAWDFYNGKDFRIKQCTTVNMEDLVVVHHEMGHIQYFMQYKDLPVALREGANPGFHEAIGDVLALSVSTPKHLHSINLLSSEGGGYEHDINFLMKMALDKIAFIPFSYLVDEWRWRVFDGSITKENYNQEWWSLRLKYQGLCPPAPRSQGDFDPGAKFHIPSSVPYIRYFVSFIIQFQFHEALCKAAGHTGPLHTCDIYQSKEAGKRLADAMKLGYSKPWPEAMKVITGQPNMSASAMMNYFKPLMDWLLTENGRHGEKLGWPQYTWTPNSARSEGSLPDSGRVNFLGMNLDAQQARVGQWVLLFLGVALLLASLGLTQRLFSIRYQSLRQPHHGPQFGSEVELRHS

Neprilysin = molecular target: T2, Neprilysin (Rattus norvegicus, UniProt P07861); experiment: Tested in vitro for the inhibition against neutral endopeptidase (NEP) from rat kidney
T2 sequence (P07861 whole entry): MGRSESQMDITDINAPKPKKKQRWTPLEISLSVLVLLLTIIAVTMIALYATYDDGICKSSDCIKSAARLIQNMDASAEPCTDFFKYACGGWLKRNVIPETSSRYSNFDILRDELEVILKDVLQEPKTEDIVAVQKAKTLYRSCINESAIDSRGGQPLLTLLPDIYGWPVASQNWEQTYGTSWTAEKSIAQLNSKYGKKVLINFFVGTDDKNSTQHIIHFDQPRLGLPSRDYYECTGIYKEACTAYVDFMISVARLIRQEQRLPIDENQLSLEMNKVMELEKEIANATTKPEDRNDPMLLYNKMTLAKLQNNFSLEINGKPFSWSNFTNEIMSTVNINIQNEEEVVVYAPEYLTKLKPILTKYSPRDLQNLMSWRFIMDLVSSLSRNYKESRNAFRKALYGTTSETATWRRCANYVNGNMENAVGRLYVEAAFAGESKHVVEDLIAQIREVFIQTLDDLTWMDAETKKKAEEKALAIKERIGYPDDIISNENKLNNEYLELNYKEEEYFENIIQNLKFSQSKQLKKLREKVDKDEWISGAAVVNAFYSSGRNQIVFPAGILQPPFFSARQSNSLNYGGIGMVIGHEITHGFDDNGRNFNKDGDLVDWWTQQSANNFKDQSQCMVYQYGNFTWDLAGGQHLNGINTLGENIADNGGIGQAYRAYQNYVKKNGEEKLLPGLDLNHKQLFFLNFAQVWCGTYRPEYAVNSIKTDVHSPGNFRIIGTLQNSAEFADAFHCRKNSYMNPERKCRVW

Rattus norvegicus [2] = experiment: Tested for the inhibition of angiotensin I (AI) pressor response after 0.5 hour following an oral dose of 10 mg/kg; format: functional
Rattus norvegicus [3] = experiment: Tested for the inhibition of angiotensin I (AI) pressor response after 1 hour following an oral dose of 10 mg/kg; format: functional
Rattus norvegicus [4] = experiment: Tested for the inhibition of angiotensin I (AI) pressor response after 2 hours following an oral dose of 10 mg/kg; format: functional
Rattus norvegicus [5] = experiment: Tested for the plasma concentration based on ex vivo NEP inhibition after 0.5 hour following an oral dose of 10 mg/kg; format: functional, organism-based; parameters: dose 10 mg/kg
Rattus norvegicus [6] = experiment: Tested for the plasma concentration based on ex vivo NEP inhibition after 1 hour following an oral dose of 10 mg/kg; format: functional, organism-based; parameters: dose 10 mg/kg
Rattus norvegicus [7] = experiment: Tested for the plasma concentration based on ex vivo NEP inhibition after 2 hours following an oral dose of 10 mg/kg; format: functional, organism-based; parameters: dose 10 mg/kg
Rattus norvegicus [8] = experiment: Tested for the plasma concentration based on ex vivo NEP inhibition after 3 hours following an oral dose of 10 mg/kg; format: functional, organism-based; parameters: dose 10 mg/kg

Row | Compound | IC50 [1] [nM] | IC50 (Neprilysin) [nM] | inhibition in vivo at 10 mg/kg (Rattus norvegicus [2]) [%] | inhibition in vivo at 10 mg/kg (Rattus norvegicus [3]) [%] | inhibition in vivo at 10 mg/kg (Rattus norvegicus [4]) [%] | also measured
1 | O=C1N[C@H](C(=O)O)CSCCCCCCCC1CS (single isomer, unassigned; isomer B) [listing 2 of 2 here] | – | – | – | – | – | Plasma concentration (Rattus norvegicus [5]): 1.81 µM; Plasma concentration (Rattus norvegicus [6]): 0.32 µM; Plasma concentration (Rattus norvegicus [7]): 0.17 µM; Plasma concentration (Rattus norvegicus [8]): 0.06 µM
2 | O=C1N[C@H](C(=O)O)CSCCCCCCCCC1CS (stereo in doubt; 12a) | 4600 | 1300 | – | – | – | –
3 | O=C(O)CN1C(=O)[C@@H](N[C@@H](CCc2ccccc2)C(=O)O)CCc2ccccc21 [BENAZEPRILAT] | – | – | 100 | 86 | 77 | –

Continued, in another order:

Row | IC50 [1] [nM] | IC50 (Neprilysin) [nM] | Compound | inhibition in vivo at 10 mg/kg (Rattus norvegicus [2]) [%] | inhibition in vivo at 10 mg/kg (Rattus norvegicus [3]) [%] | inhibition in vivo at 10 mg/kg (Rattus norvegicus [4]) [%] | also measured
4 | 72 | 190 | O=C1N[C@H](C(=O)O)CSCCCCCCCC1CS (single isomer, unassigned; isomer A) | – | – | – | –
5 | 12 | 18 | O=C1N[C@H](C(=O)O)CSCCCCCCCC1CS (single isomer, unassigned; isomer B) [listing 1 of 2 here] | 71 | 17 | 0 | –
6 | 17 | 167 | O=C1N[C@H](C(=O)O)CSCCCCCCCCC1CS (stereo in doubt; 12b) | – | – | – | –
